# Patent US20140221378A1, “SUBSTITUTED SPIROPYRIDO[1,2-a]PYRAZINE DERIVATIVE AND PHARMACEUTICAL USE OF SAME AS HIV INTEGRASE INHIBITOR” (priority 2012, published 2014)
# Structures can show the parent of a compound that is named as a salt. Where two headings read alike, the source gives them in different places.
# System: HIV-1 NL4-3 strain
# Test: Antiviral activity in acute infection system of MT-4 cell with HIV-1 NL4-3 strain (Cell Titer-Glo)
# Type: cell-based
# [1] = antiviral activity, MT-4 cells infected with HIV-1 NL4-3 strain, MOI 0.05, 5 days culture, Cell Titer-Glo luminescence, read-out: EC50
molecule,measurement,setting,value
"CCN1C[C@@]2(C[C@@H]2COC)n2cc(C(=O)NCc3cccc(C(F)(F)F)c3F)c(=O)c(O)c2C1=O [Example T27, (1S, 2S)-2′-ethyl-N-(2-fluoro-3-(trifluoromethyl)benzyl)-9′-hydroxy-2-(methoxymethyl)-1′,8′-dioxo-1′,2′,3′,8′-tetrahydrospiro[cyclopropane-1,4′-pyrido[1,2-a]pyrazine]-7′-carboxamide]",EC50,"Human immunodeficiency virus 1, NL43, MT4, antiviral activity, MT-4 cells acutely infected with HIV-1 NL4-3 strain (wild type), Cell Titer-Glo, read-out: EC50",97 nM
"CO[C@H]1C[C@]2(CN(C)C(=O)c3c(O)c(=O)c(C(=O)NCc4cccc(Cl)c4F)cn32)C1 [Example 1, N-(3-chloro-2-fluorobenzyl)-9′-hydroxy-cis-3-methoxy-2′-methyl-1′,8′-dioxo-1′,2′,3′,8′-tetrahydrospiro[cyclobutane-1,4′-pyrido[1,2-a]pyrazine]-7′-carboxamide hydrochloride]",EC50,"Human immunodeficiency virus 1, NL43, MT4, 120 h, antiviral activity, MT-4 cells infected with HIV-1 NL4-3 strain, MOI 0.05, 5 days culture, Cell Titer-Glo luminescence",3.1 nM
"cis-3-(benzyloxy)-N-(2,4- difluorobenzyl)-9′-hydroxy- 2′-isopropyl-1′,8′-dioxo- 1′,2′,3′,8′- tetrahydrospiro[cyclobutane- 1,4′-pyrido[1,2-a]pyrazine]- 7′-carboxamide hydrochloride [Example S2]",EC50,[1],10 nM
"N-(3-chloro-2-fluorobenzyl)- 2′-ethyl-9′-hydroxy-trans-3- (hydroxymethyl)-1′,8′-dioxo- 1′,2′,4′,8′- tetrahydrospiro[cyclobutane- 1,3′-pyrido[1,2-a]pyrazine]- 7′-carboxamide hydrochloride [Example S58]",EC50,[1],6.8 nM
"CO[C@H]1C[C@]2(Cn3cc(C(=O)NCc4cccc(Cl)c4F)c(=O)c(O)c3C(=O)N2C)C1 [Example S63, N-(3-chloro-2-fluorobenzyl)-9′-hydroxy-cis-3-methoxy-2′-methyl-1′,8′-dioxo-1′,2′,4′,8′-tetrahydrospiro[cyclobutane-1,3′-pyrido[1,2-a]pyrazine]-7′-carboxamide hydrochloride]",EC50,"Human immunodeficiency virus 1, NL43, MT4, 120 h, antiviral activity, MT-4 cells infected with HIV-1 NL4-3 strain, MOI 0.05, 5 days culture, Cell Titer-Glo luminescence, read-out: EC50",4 nM
